What was measured:
[1] = target: T1, Bifunctional epoxide hydrolase 2 (Homo sapiens) (UniProt P34913); experiment: Inhibition of recombinant human sEH at 100 nM using PHOME as substrate measured after 15 mins by fluorescence assay relative to control
T1 sequence (whole entry): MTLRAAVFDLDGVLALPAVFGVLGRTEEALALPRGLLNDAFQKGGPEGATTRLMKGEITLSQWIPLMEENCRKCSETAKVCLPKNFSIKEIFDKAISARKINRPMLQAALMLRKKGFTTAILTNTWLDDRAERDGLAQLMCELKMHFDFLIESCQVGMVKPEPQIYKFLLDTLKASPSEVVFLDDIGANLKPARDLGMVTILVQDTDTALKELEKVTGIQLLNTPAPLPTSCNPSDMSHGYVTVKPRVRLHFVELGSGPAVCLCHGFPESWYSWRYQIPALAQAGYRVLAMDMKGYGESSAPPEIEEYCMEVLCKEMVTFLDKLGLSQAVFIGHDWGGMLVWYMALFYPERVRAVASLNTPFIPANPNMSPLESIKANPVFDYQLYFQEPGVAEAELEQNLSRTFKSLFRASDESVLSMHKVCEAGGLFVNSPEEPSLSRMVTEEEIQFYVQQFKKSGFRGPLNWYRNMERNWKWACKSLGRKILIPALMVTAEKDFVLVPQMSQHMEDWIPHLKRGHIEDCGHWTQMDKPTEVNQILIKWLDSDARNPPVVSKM

[2] = target: T2, Bifunctional epoxide hydrolase 2 (Homo sapiens, UniProt P34913); experiment: Inhibition of recombinant human sEH using PHOME as substrate measured after 15 mins by fluorescence assay
T2 sequence (P34913 whole entry): T1 sequence (whole entry)

in vitro [3] = settings: Sprague-Dawley, rat, liver microsomes
Description: Stability in Sprague-Dawley rat liver microsomes assessed as parent compound remaining at 10 uM measured after 60 mins in presence of NADPH regenerating system by HPLC analysis

in vitro [4] = settings: Sprague-Dawley, rat, liver microsomes; remark: listed apart in the source
Description: Stability in Sprague-Dawley rat liver microsomes assessed as parent compound remaining at 10 uM measured after 60 mins in absence of NADPH regenerating system by HPLC analysis

in vitro [5] = settings: Sprague-Dawley, rat, liver microsomes; remark: listed apart in the source
in vitro [6] = settings: Sprague-Dawley, rat, liver microsomes; remark: listed apart in the source
Description: Half life in Sprague-Dawley rat liver microsomes at 10 uM measured up to 60 mins in presence of NADPH regenerating system by HPLC analysis

in vitro [7] = settings: Sprague-Dawley, rat, liver microsomes; remark: listed apart in the source
Mus musculus [8] = experiment: Antiinflammatory activity in BALB/c mouse model of carrageenan-induced paw edema assessed as paw thickness at 100 mg/kg, ip pretreated for 1 hr followed by carrageenan challenge and measured after 2 hrs by caliper method (reference value: 3.56 +/- 0.29 millimeter); assay type: functional; settings: time 3 hrs
Mus musculus [9] = experiment: Antiinflammatory activity in BALB/c mouse model of carrageenan-induced paw edema assessed as paw thickness at 100 mg/kg, ip pretreated for 1 hr followed by carrageenan challenge and measured after 4 hrs by caliper method (reference value: 3.60 +/- 0.12 millimeter); assay type: functional; settings: time 5 hrs
Mus musculus [10] = experiment: Antiinflammatory activity in BALB/c mouse model of carrageenan-induced paw edema assessed as paw edema at 100 mg/kg, ip pretreated for 1 hr followed by carrageenan challenge and measured after 2 hrs by caliper method relative to control; assay type: functional; settings: time 3 hrs
Mus musculus [11] = experiment: Antiinflammatory activity in BALB/c mouse model of carrageenan-induced paw edema assessed as paw edema at 100 mg/kg, ip pretreated for 1 hr followed by carrageenan challenge and measured after 1 hr by caliper method relative to control; assay type: functional; settings: time 2 hrs
Mus musculus [12] = experiment: Antiinflammatory activity in BALB/c mouse model of carrageenan-induced paw edema assessed as paw thickness at 100 mg/kg, ip pretreated for 1 hr followed by carrageenan challenge and measured after 3 hrs by caliper method (reference value: 3.61 +/- 0.36 millimeter); assay type: functional; settings: time 4 hrs
Mus musculus [13] = experiment: Antiinflammatory activity in BALB/c mouse model of carrageenan-induced paw edema assessed as paw edema at 100 mg/kg, ip pretreated for 1 hr followed by carrageenan challenge and measured after 3 hrs by caliper method relative to control; assay type: functional; settings: time 4 hrs
Mus musculus [14] = experiment: Antiinflammatory activity in BALB/c mouse model of carrageenan-induced paw edema assessed as paw edema at 100 mg/kg, ip pretreated for 1 hr followed by carrageenan challenge and measured after 4 hrs by caliper method relative to control; assay type: functional; settings: time 5 hrs
Mus musculus [15] = experiment: Antiinflammatory activity in BALB/c mouse model of carrageenan-induced paw edema assessed as paw thickness at 100 mg/kg, ip pretreated for 1 hr followed by carrageenan challenge and measured after 1 hr by caliper method (reference value: 3.51 +/- 0.19 millimeter); assay type: functional; settings: time 2 hrs

Compound: CN1CCN(C(=O)Nc2nc3ccc(N(CCN4CCOCC4)C(=O)Nc4ccc(Cl)cc4)cc3s2)CC1
- inhibition [1]: 64%

Compound: CCN(CC)CCN(C(=O)Nc1ccc(Cl)cc1)c1ccc2nc(N)sc2c1
- inhibition [1]: 86.3%
- IC50 [2]: 24.5 nM

Compound: CC(=O)Nc1ccc2nc(NC(=O)NCc3ccc(Cl)cc3)sc2c1
- inhibition [1]: 14.5%

Compound: CCc1ccc(NC(=O)N(CCN2CCOCC2)c2ccc3nc(N)sc3c2)cc1
- inhibition [1]: 84.7%
- IC50 [2]: 1.9 nM

Compound: O=C(O)Cc1ccccc1Nc1c(Cl)cccc1Cl [DICLOFENAC]
- remaining at 1 h, 10 µM (in vitro [3]): 16.9%
- remaining at 1 h, 10 µM (in vitro [4]): 96.3%
- microsomal CLint at 1 h, 10 µM (in vitro [5]): 107 µL/min/mg
- half-life at 1 h, 10 µM (in vitro [6]): 23.4 min
- microsomal CLint at 1 h, 10 µM (in vitro [7]): 59.3 µL/min/mg

Compound: Nc1ccc2nc(NC(=O)NCc3ccc(Cl)cc3)sc2c1
- inhibition [1]: 14.2%

Compound: O=C(Cc1ccc(Cl)cc1)Nc1nc2ccc(N(CCN3CCOCC3)C(=O)Nc3ccc(Cl)cc3)cc2s1
- inhibition [1]: 71.9%

Compound: O=C(Nc1nc2ccc(N(CCN3CCOCC3)C(=O)Nc3ccc(Cl)cc3)cc2s1)c1ccc(F)cc1
- inhibition [1]: 64%

Compound: Nc1nc2ccc(NC(=O)Nc3ccc(Cl)cc3)cc2s1
- inhibition [1]: 76.1%
- IC50 [2]: 10.1 nM

Compound: Nc1nc2ccc(N(CCN3CCCC3)C(=O)Nc3ccc(Cl)cc3)cc2s1
- inhibition [1]: 48.3%

Compound: Nc1nc2ccc(N(CCN3CCOCC3)C(=O)Nc3ccc(C(F)(F)F)cc3)cc2s1
- inhibition [1]: 62%

Compound: Nc1nc2ccc(NC(=O)Nc3ccccc3)cc2s1
- inhibition [1]: 40.1%

Compound: O=C(Cc1ccc(Cl)cc1Cl)Nc1nc2ccc(N(CCN3CCOCC3)C(=O)Nc3ccc(Cl)cc3)cc2s1
- inhibition [1]: 71.8%

Compound: O=C(Nc1ccc(Cl)cc1)Nc1nc2ccc(NCCN3CCOCC3)cc2s1
- inhibition [1]: 16.2%

Compound: Nc1nc2ccc(N(CCN3CCOCC3)C(=O)Nc3ccc(Cl)cc3Cl)cc2s1
- inhibition [1]: 58.4%

Compound: Nc1nc2ccc(N(CCN3CCOCC3)C(=O)Nc3cccc4ccccc34)cc2s1
- inhibition [1]: 39%
- IC50 [2]: 151 nM

Compound: Nc1nc2ccc(NC(=O)Nc3ccc(OC(F)(F)F)cc3)cc2s1
- inhibition [1]: 60.2%

Compound: Cc1ccc(NC(=O)N(CCN2CCOCC2)c2ccc3nc(N)sc3c2)cc1
- inhibition [1]: 73.1%
- IC50 [2]: 8.3 nM

Compound: Nc1nc2ccc(N(CCN3CCCCC3)C(=O)Nc3ccc(Cl)cc3)cc2s1
- inhibition [1]: 84.6%
- IC50 [2]: 6.5 nM

Compound: CC(=O)Nc1ccc(NC(=O)N(CCN2CCOCC2)c2ccc3nc(N)sc3c2)cc1
- inhibition [1]: 59.4%

Compound: O=C(Nc1ccc(Cl)cc1)Nc1nc2ccc([N+](=O)[O-])cc2s1
- inhibition [1]: 7.2%

Compound: Cc1ccccc1NC(=O)N(CCN1CCOCC1)c1ccc2nc(N)sc2c1
- inhibition [1]: 26.3%

Compound: O=C(Cc1ccccc1F)Nc1nc2ccc(N(CCN3CCOCC3)C(=O)Nc3ccc(F)c(Br)c3)cc2s1
- inhibition [1]: 73.8%

Compound: Nc1nc2ccc(NC(=O)NC3CCCCC3)cc2s1
- inhibition [1]: 59.9%
- IC50 [2]: 4.1 nM

Compound: Nc1nc2ccc(N(CCN3CCOCC3)C(=O)Nc3ccc(Br)cc3)cc2s1
- inhibition [1]: 83.8%
- IC50 [2]: 16.2 nM

Compound: O=C(CCc1ccccc1)Nc1nc2ccc(N(CCN3CCOCC3)C(=O)Nc3ccc(Cl)cc3)cc2s1
- inhibition [1]: 77.7%

Compound: NC(=O)Nc1ccc2nc(N)sc2c1
- inhibition [1]: 25.3%

Compound: O=C(NCc1ccc(Cl)cc1)Nc1nc2ccc([N+](=O)[O-])cc2s1
- inhibition [1]: 10.9%

Compound: O=C(Cc1ccc(F)cc1)Nc1nc2ccc(N(CCN3CCOCC3)C(=O)Nc3ccc(Cl)cc3)cc2s1
- inhibition [1]: 74.9%

Compound: O=C(NC12CC3CC(CC(C3)C1)C2)N[C@H]1CC[C@H](Oc2ccc(C(=O)O)cc2)CC1
- Activity (Mus musculus [8]): 3.23 mm
- Activity (Mus musculus [9]): 3.28 mm
- Activity (Mus musculus [10]): 22.61%
- Activity (Mus musculus [11]): 25.01%
- Activity (Mus musculus [12]): 3.29 mm
- Activity (Mus musculus [13]): 24.98%
- Activity (Mus musculus [14]): 24.71%
- Activity (Mus musculus [15]): 3.3 mm

Compound: Nc1nc2ccc(N(CCN3CCOCC3)C(=O)Nc3cccc(C(F)(F)F)c3)cc2s1
- inhibition [1]: 6.18%

Compound: Nc1nc2ccc(N(CCN3CCOCC3)C(=O)Nc3ccc([N+](=O)[O-])cc3)cc2s1
- inhibition [1]: 19.2%

Compound: CC(=O)Nc1ccc2nc(NC(=O)Nc3ccc(Cl)cc3)sc2c1
- inhibition [1]: 12.5%

Compound: Cc1cccc(NC(=O)N(CCN2CCOCC2)c2ccc3nc(N)sc3c2)c1
- inhibition [1]: 61.7%
- IC50 [2]: 101 nM

Compound: Nc1nc2ccc(NC(=O)Nc3cccc4ccccc34)cc2s1
- inhibition [1]: 34.1%

Compound: CC(C)c1ccc(NC(=O)N(CCN2CCOCC2)c2ccc3nc(N)sc3c2)cc1
- inhibition [1]: 75.2%
- IC50 [2]: 11.2 nM

Compound: O=C(Cc1ccccc1F)Nc1nc2ccc(N(CCN3CCOCC3)C(=O)Nc3ccc(Cl)cc3)cc2s1
- inhibition [1]: 82.5%
- IC50 [2]: 4.08 nM

Compound: Nc1nc2ccc(NC(=O)NC34CC5CC(CC(C5)C3)C4)cc2s1
- inhibition [1]: 77.3%
- IC50 [2]: 822 nM

Compound: CN(C)CCN(C(=O)Nc1ccc(Cl)cc1)c1ccc2nc(N)sc2c1
- inhibition [1]: 39.1%

Compound: Nc1nc2ccc(N(CCN3CCOCC3)C(=O)Nc3ccc(OC(F)(F)F)cc3)cc2s1
- inhibition [1]: 61.3%

Compound: Nc1nc2ccc(NC(=O)Nc3ccccn3)cc2s1
- inhibition [1]: 20.5%

Compound: COc1ccc(CC(=O)Nc2nc3ccc(N(CCN4CCOCC4)C(=O)Nc4ccc(Cl)cc4)cc3s2)cc1
- inhibition [1]: 65.8%

Compound: O=C(Nc1nc2ccc(N(CCN3CCOCC3)C(=O)Nc3ccc(Cl)cc3)cc2s1)C1CC1
- inhibition [1]: 32.5%

Compound: CCc1ccc(NC(=O)N(CCN2CCOCC2)c2ccc3nc(NC(=O)Cc4ccccc4F)sc3c2)cc1
- inhibition [1]: 85.2%
- IC50 [2]: 5.4 nM

Compound: CC(C)Oc1ccc(NC(=O)N(CCN2CCOCC2)c2ccc3nc(N)sc3c2)cc1
- inhibition [1]: 56.6%
- IC50 [2]: 122 nM

Compound: O=C(Cc1ccccc1)Nc1nc2ccc(N(CCN3CCOCC3)C(=O)Nc3ccc(F)c(Br)c3)cc2s1
- inhibition [1]: 74.2%

Compound: CC1CCN(CCN(C(=O)Nc2ccc(Cl)cc2)c2ccc3nc(N)sc3c2)CC1
- inhibition [1]: 77.5%
- IC50 [2]: 20.2 nM

Compound: COc1ccc(NC(=O)Nc2ccc3nc(N)sc3c2)cc1
- inhibition [1]: 39.3%

Compound: CC(=O)c1ccc(NC(=O)N(CCN2CCOCC2)c2ccc3nc(N)sc3c2)cc1
- inhibition [1]: 28.2%

Compound: Nc1nc2ccc(N(CCN3CCOCC3)C(=O)Nc3cccc(Cl)c3)cc2s1
- inhibition [1]: 36.5%

Compound: CC(=O)Nc1nc2ccc(N(CCN3CCOCC3)C(=O)Nc3ccc(Cl)cc3)cc2s1
- inhibition [1]: 68.1%

Compound: Nc1nc2ccc(N(CCN3CCOCC3)C(=O)Nc3ccccc3Cl)cc2s1
- inhibition [1]: 59.7%

Compound: Nc1nc2ccc(N(CCN3CCOCC3)C(=O)Nc3ccc(F)cc3)cc2s1
- inhibition [1]: 74.3%

Compound: O=C(Cc1ccc(Br)cc1)Nc1nc2ccc(N(CCN3CCOCC3)C(=O)Nc3ccc(Cl)cc3)cc2s1
- inhibition [1]: 70.6%

Compound: Nc1nc2ccc(N(CCN3CCOCC3)C(=O)NCc3ccc(Cl)cc3)cc2s1
- inhibition [1]: 14.5%

Compound: Nc1nc2ccc(N(CCN3CCOCC3)C(=O)Nc3ccccn3)cc2s1
- inhibition [1]: 16.2%

Compound: CN1CCN(CCN(C(=O)Nc2ccc(Cl)cc2)c2ccc3nc(N)sc3c2)CC1
- inhibition [1]: 45.9%

Compound: Nc1nc2ccc(NC(=O)NCc3ccc(Cl)cc3)cc2s1
- inhibition [1]: 47%

Compound: Nc1ccc2nc(NC(=O)Nc3ccc(Cl)cc3)sc2c1
- inhibition [1]: 6.7%

Compound: Nc1nc2ccc(N(CCCN3CCOCC3)C(=O)Nc3ccc(Cl)cc3)cc2s1
- inhibition [1]: 9.44%

Compound: CCc1ccc(NC(=O)N(CCN2CCOCC2)c2ccc3nc(NC(=O)Cc4ccccc4)sc3c2)cc1
- inhibition [1]: 76.8%

Compound: Nc1nc2ccc(N(CCN3CCOCC3)C(=O)Nc3ccccc3)cc2s1
- inhibition [1]: 40.4%

Compound: O=C(Nc1nc2ccc(N(CCN3CCOCC3)C(=O)Nc3ccc(Cl)cc3)cc2s1)c1ccccc1
- inhibition [1]: 48.8%

Compound: COc1ccc(CC(=O)Nc2nc3ccc(N(CCN4CCOCC4)C(=O)Nc4ccc(Cl)cc4)cc3s2)cc1F
- inhibition [1]: 58.1%
